Experimental data taken from patent publication US8580815B2, “Derivatives of azaindoles as inhibitors of protein kinases ABL and SRC” (Oribase Pharma, priority 2009, dated 2013).
Where “and” joins values, the source holds several entries; their conditions need not be identical. Equal values may be shown once. Read-outs that look alike come from different tables or passages of the source.

Experiments:
[1] = test system: K562 cells expressing kinase Bcr-AbI; assay: Inhibition of cellular proliferation (MTT), K562 cells; format: cell-based, human; conditions: Homo sapiens
Experimental: Cellular tests were carried out at the Montpellier Cancer Research Centre. The inhibition of proliferation by our compounds was analysed on 2 cell lines (U937 and K562) by calculating the IC50, testing 6 concentrations in triplicate for each of the compounds and for each line.
Cells in exponential phase were seeded in 96-well plates at a concentration of 10^4 cells/100 μL/well. The final concentrations of compound in the well in contact with the cells were 0.1; 0.3; 0.9; 3.3; 10; 30; 90 μM. […]

Abl WT = Abl WT (Homo sapiens (Human), UniProt P00519); assay: Reaction Biology Corp. kinase assay, Abl WT; format: biochemical; conditions: compounds tested by Reaction Biology Corp.; for inhibition at 10 µM: read-out: % inhibition of kinase activity, Abl WT (category); for IC50: ATP at 10 μM, read-out: IC50 on kinase Abl WT (category)
Experimental: (§1) 4 compounds were tested for their capacity to inhibit various mutated kinases AbI (American company, Reaction Biology Corp.).

Abl T315I = Abl T315I (Homo sapiens (Human), UniProt P00519, T315I); assay: Reaction Biology Corp. kinase assay, mutated Abl T315I; format: biochemical; conditions: Reaction Biology Corp.; for inhibition at 10 µM: read-out: % inhibition of kinase activity, Abl T315I (category); for IC50: ATP at 10 μM, read-out: IC50 on kinase Abl T315I (category)
Experimental: as §1

Src kinase = Src kinase (Homo sapiens (Human), UniProt P12931); assay: Reaction Biology Corp. kinase assay, Src; conditions: compounds tested by Reaction Biology Corp.; for IC50: IC50 on kinase Src (category), ATP at 10 μM; for inhibition at 10 µM: read-out: % inhibition of kinase activity, Src (category), 10 μM
Src kinase, sequence (P12931 whole entry, looked up): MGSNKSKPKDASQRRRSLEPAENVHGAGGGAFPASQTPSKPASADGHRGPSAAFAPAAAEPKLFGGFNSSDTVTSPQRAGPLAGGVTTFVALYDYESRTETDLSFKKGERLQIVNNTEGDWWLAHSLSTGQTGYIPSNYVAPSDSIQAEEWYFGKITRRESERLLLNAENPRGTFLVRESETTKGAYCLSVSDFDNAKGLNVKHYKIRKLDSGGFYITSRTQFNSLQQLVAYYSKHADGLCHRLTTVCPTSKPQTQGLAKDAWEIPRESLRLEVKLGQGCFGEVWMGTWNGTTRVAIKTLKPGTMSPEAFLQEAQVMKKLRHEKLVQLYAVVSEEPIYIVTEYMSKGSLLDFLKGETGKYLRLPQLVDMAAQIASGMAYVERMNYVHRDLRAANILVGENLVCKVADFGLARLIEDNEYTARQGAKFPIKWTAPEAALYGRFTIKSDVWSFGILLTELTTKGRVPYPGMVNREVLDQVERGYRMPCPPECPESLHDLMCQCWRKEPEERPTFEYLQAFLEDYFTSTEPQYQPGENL

[2] = K562, 24 h, 24 h incubation, read-out: IC50 at 24 h on K562 (category)
[3] = K562, 72 h, read-out: IC50 at 72 h on K562 (category), 72 h incubation
[4] = K562, incubation time not stated (24 h and/or 72 h), read-out: IC50 for the K562 Bcr-AbI kinase (category)

| Compound | IC50 [1, 2] | IC50 [1, 3] | IC50 [1, 4] | inhibition at 10 µM (Abl WT) | IC50 (Abl WT) | inhibition at 10 µM (Abl T315I) | IC50 (Src kinase) | inhibition at 10 µM (Src kinase) | IC50 (Abl T315I) |
| --- | --- | --- | --- | --- | --- | --- | --- | --- | --- |
| COC(=O)c1cc2cc(NCc3ccc(S(N)(=O)=O)cc3)cnc2[nH]1 [ND0101] |  |  |  | > 50% |  | < 10% |  | 10 to 50% |  |
| COC(=O)c1cc2cc(NC(=O)c3cccs3)cnc2[nH]1 [ND0079, Methyl 5-(thiophene-2-carboxamido)-1H-pyrrolo[2,3-b]pyridine-2-carboxylate] |  |  |  | 10 to 50% |  | < 10% |  | 10 to 50% |  |
| COC(=O)c1cc2cc(NC(=O)c3ccccc3OC(F)(F)F)cnc2[nH]1 [ND0078, Methyl 5-(2-(trifluoromethoxy)benzamido)-1H-pyrrolo[2,3-b]pyridine-2-carboxylate] |  |  |  | 10 to 50% |  | < 10% |  | 10 to 50% |  |
| COC(=O)c1cc2cc(NCc3cc(NC(=O)c4ccc(CN5CCN(C)CC5)cc4)ccc3C)cnc2[nH]1 [ND0118, methyl 5-(5-(4-((4-methylpiperazin-1-yl)methyl)benzamido)-2-methyl-benzylamino)-1H-pyrrolo[2,3-b]pyridine-2-carboxylate] | 1 to 10 µM | < 0.01 µM |  | > 50% | < 0.001 µM | > 50% | < 0.001 µM | > 50% | 0.1 to 10 µM |
| COC(=O)c1cc2cc(NC(=O)c3cc(NC(=O)c4ccc(CN5CCC(N(C)C)C5)c(C(F)(F)F)c4)ccc3C)cnc2[nH]1 (stereo not drawn) [ND0119, methyl 5-(5-(4-((3-(dimethylamino)pyrrolidin-1-yl)methyl)-3-(trifluoro-methyl)benzamido)-2-methylbenzamido)-1H-pyrrolo[2,3-b]pyridine-2-carboxylate] | 0.01 µM | < 0.01 µM | 0.01 µM | > 50% | < 0.001 µM | > 50% | 0.001 to 0.1 µM | > 50% | 0.1 to 10 µM |
| COC(=O)c1cc2cc(NC(=O)c3cc(NC(=O)c4ccc(CN5CCN(C)CC5)cc4)ccc3C)cnc2[nH]1 [ND0117, methyl 5-(5-(4-((4-methylpiperazin-1-yl)methyl)benzamido)-2-methylbenzamido)-1H-pyrrolo[2,3-b]pyridine-2-carboxylate] | 0.01 µM | < 0.01 µM | 0.01 µM | > 50% | < 0.001 µM | 10 to 50% | 0.001 to 0.1 µM | > 50% |  |
| COC(=O)c1cc2cc(Nc3ccncc3)cnc2[nH]1 [ND0058] |  |  |  | 10 to 50% |  | < 10% |  | 10 to 50% |  |
| COC(=O)c1cc2cc(NC(=O)c3cccc(S(=O)(=O)NCc4ccco4)c3)cnc2[nH]1 [ND0086] |  |  |  | 10 to 50% |  | < 10% |  | < 10% |  |
| COC(=O)c1cc2cc(Nc3cccc(I)c3)cnc2[nH]1 [ND0103] |  |  |  | 10 to 50% |  | < 10% |  | 10 to 50% |  |
| COC(=O)c1cc2cc(NCc3nccs3)cnc2[nH]1 [ND0094] |  |  |  | > 50% | 0.1 to 10 µM | 10 to 50% | 0.1 to 10 µM | > 50% |  |
| COC(=O)c1cc2cc(NC(=O)c3c(Cl)cccc3Cl)cnc2[nH]1 [ND0072, Methyl 5-(2,6-dichlorobenzamido)-1H-pyrrolo[2,3-b]pyridine-2-carboxylate] | > 10 µM | 0.01 to 1 µM |  | > 50% | 0.001 to 0.1 µM | < 10% | 0.001 to 0.1 µM | > 50% |  |
| COC(=O)c1cc2cc(NC(=O)c3cc(C)n[nH]3)cnc2[nH]1 [ND0085] |  |  |  | > 50% | 0.1 to 10 µM | < 10% |  | 10 to 50% |  |
| COC(=O)c1cc2cc(NC(=O)c3ccc4[nH]ccc4c3)cnc2[nH]1 [ND0082] |  |  |  | > 50% | 0.1 to 10 µM | < 10% |  | < 10% |  |
| COC(=O)c1cc2cc(NC(=O)c3ccccc3C(F)(F)F)cnc2[nH]1 [ND0077, Methyl 5-(2-(trifluoromethyl)benzamido)-1H-pyrrolo[2,3-b]pyridine-2-carboxylate] |  |  |  | > 50% | 0.001 to 0.1 µM | < 10% | 0.001 to 0.1 µM and 0.1 to 10 µM | > 50% |  |
| COC(=O)c1cc2cc(NC(=O)c3cccc(Br)c3)cnc2[nH]1 [ND0075, Methyl 5-(3-bromobenzamido)-1H-pyrrolo[2,3-b]pyridine-2-carboxylate] |  |  |  | 10 to 50% |  | 10 to 50% |  | 10 to 50% |  |

The next lines start with the values.

| IC50 [1, 2] | IC50 [1, 3] | IC50 [1, 4] | inhibition at 10 µM (Abl WT) | IC50 (Abl WT) | inhibition at 10 µM (Abl T315I) | IC50 (Src kinase) | inhibition at 10 µM (Src kinase) | IC50 (Abl T315I) | Compound |
| --- | --- | --- | --- | --- | --- | --- | --- | --- | --- |
| 1 to 10 µM | 0.01 to 1 µM | 0.01 µM | > 50% | 0.001 to 0.1 µM | 10 to 50% | 0.001 to 0.1 µM | > 50% |  | COC(=O)c1cc2cc(NCc3c(Cl)cccc3Cl)cnc2[nH]1 [ND0087] |
| 1 to 10 µM | 0.01 to 1 µM | 0.01 µM | > 50% | 0.001 to 0.1 µM | > 50% | 0.1 to 10 µM | > 50% | 0.1 to 10 µM | COC(=O)c1cc2cc(NCc3ccc4[nH]ccc4c3)cnc2[nH]1 [ND0096] |
|  |  |  | > 50% | 0.1 to 10 µM | 10 to 50% | 0.1 to 10 µM | > 50% |  | COC(=O)c1cc2cc(NCc3cccs3)cnc2[nH]1 [ND0093] |
|  |  |  | > 50% | 0.1 to 10 µM | < 10% | 0.1 to 10 µM | > 50% |  | COC(=O)c1cc2cc(NCc3ccccc3Br)cnc2[nH]1 [ND0057] |
| 1 to 10 µM | 0.01 to 1 µM | 0.01 µM | > 50% | 0.1 to 10 µM | < 10% |  | > 50% |  | COC(=O)c1cc2cc(NC(=O)c3ccccc3C)cnc2[nH]1 [ND0076, Methyl 5-(2-methylbenzamido)-1H-pyrrolo[2,3-b]pyridine-2-carboxylate] |
|  |  |  | > 50% | 0.1 to 10 µM | < 10% | 0.1 to 10 µM | > 50% |  | COC(=O)c1cc2cc(NCc3ccccc3OC)cnc2[nH]1 [ND0088] |
|  |  |  | > 50% | 0.1 to 10 µM | < 10% | 0.1 to 10 µM | > 50% |  | COC(=O)c1cc2cc(NCc3ccccc3C(F)(F)F)cnc2[nH]1 [ND0091] |
|  |  |  | 10 to 50% |  | < 10% |  | < 10% |  | COC(=O)c1cc2cc(NCc3ccccc3OC(F)(F)F)cnc2[nH]1 [ND0092] |
| 1 to 10 µM | 0.01 to 1 µM | 0.01 µM | > 50% | 0.001 to 0.1 µM | 10 to 50% | 0.001 to 0.1 µM | > 50% |  | COC(=O)c1cc2cc(NCc3ccccc3C)cnc2[nH]1 [ND0090] |
|  |  |  | 10 to 50% |  | < 10% |  | 10 to 50% |  | COC(=O)c1cc2cc(NC(=O)c3ccccc3OC)cnc2[nH]1 [ND0073, Methyl 5-(2-methoxybenzamido)-1H-pyrrolo[2,3-b]pyridine-2-carboxylate] |
